Measurements reported in PubChem BioAssay AID404 (SGCOxCompounds, 2006).

Molecular target: Receptor-type tyrosine-protein phosphatase kappa (Homo sapiens) (UniProt Q15262)
Experiment: inhibitors of receptor tyrosine phosphatase kappa – biochemical, recombinant human enzyme, DiFMUP fluorescence (AID 404)
Conditions: recombinant PTPRK, at 50 µM, enzyme 34 ng/mL, 25 °C, DTT 5 mM, hits give high values

Sequence of Receptor-type tyrosine-protein phosphatase kappa (Homo sapiens) (Q15262 whole entry, looked up): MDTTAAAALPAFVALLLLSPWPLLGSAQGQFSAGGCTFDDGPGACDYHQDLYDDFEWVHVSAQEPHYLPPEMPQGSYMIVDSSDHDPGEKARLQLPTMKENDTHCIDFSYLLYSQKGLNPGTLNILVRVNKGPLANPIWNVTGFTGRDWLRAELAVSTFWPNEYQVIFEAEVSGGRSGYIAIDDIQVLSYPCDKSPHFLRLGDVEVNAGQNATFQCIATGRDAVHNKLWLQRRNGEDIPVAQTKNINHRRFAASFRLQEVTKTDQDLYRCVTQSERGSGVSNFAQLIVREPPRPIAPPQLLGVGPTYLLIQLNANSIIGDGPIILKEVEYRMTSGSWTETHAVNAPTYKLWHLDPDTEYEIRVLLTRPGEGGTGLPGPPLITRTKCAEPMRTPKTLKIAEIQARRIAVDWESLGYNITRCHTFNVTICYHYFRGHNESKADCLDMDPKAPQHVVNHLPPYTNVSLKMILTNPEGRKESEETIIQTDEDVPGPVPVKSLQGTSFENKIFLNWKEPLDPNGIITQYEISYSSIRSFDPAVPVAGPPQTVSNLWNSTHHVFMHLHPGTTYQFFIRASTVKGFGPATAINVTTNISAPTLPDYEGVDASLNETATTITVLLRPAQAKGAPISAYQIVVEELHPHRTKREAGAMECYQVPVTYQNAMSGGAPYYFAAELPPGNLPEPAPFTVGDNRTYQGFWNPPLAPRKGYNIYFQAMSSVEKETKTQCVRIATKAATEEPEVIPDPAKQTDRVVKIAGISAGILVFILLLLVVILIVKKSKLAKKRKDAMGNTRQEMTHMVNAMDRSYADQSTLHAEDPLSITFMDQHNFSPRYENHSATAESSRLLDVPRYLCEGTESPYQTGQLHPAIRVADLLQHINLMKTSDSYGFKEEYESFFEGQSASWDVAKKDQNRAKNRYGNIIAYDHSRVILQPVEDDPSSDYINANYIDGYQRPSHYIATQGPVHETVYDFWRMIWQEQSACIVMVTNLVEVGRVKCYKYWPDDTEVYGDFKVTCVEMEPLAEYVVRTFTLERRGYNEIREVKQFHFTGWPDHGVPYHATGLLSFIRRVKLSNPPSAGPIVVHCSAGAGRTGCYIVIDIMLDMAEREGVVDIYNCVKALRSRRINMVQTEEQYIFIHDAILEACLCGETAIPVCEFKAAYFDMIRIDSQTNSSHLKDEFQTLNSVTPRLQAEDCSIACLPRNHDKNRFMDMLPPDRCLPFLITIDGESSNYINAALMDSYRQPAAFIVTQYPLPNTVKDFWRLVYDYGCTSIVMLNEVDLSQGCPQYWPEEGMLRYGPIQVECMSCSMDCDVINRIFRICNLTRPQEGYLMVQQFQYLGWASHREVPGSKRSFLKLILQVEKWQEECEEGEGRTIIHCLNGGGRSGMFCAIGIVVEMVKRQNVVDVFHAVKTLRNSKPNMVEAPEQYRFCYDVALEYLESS

Row | SMILES | inhibition [%]
1 | O=C1NC(=S)NC(=O)C1=C/C=C/c1ccco1 | 22
2 | O=C(O)c1ccc(O)c(C=Nc2ccc3oc(-c4cc(Cl)ccc4Cl)nc3c2)c1 | 15
3 | O=C(O)c1ccc(O)cn1.OO.[O]=[V] | 94
4 | Cc1cc(C)c(N2C(=O)c3ccc(C(=O)Nc4ccc(O)cc4C(=O)O)cc3C2=O)c(C)c1 | 38
5 | CC(C)CCN1C(=O)c2ccc(C(=O)Nc3ccc(O)cc3C(=O)O)cc2C1=O | 14
6 | O=C(Nc1ccc(O)cc1C(=O)O)c1ccc2c(c1)C(=O)N(CC1CCCO1)C2=O (configuration not stated) | 12
7 | CC(=O)c1ccc2c(c1)C1C=CCC1C(C(=O)O)N2 (configuration not stated) | 40
8 | Cc1ccc(N=Cc2cc(C(=O)O)ccc2O)c(O)c1 | 20
9 | Cc1c(Cl)c(C)c([N+](=O)[O-])c(O)c1C=Nc1ccc(O)cc1C(=O)O | 78
10 | O=C(Nc1ccc(O)cc1C(=O)O)c1ccc(NC(=O)c2ccco2)cc1 | 18
11 | O=C(O)c1ccc([O-])cn1.OO.OO.[K+].[K+].[O]=[V] | 100
12 | F | 14
13 | CC(C)(c1ccc(NS(=O)(=O)C(F)(F)F)cc1)c1ccc(C(C)(C)c2ccc(NS(=O)(=O)C(F)(F)F)cc2)cc1 | 14
14 | COc1cccc(-c2nc3cc(N=Cc4cc(C(=O)O)ccc4O)ccc3o2)c1 | 29
15 | Cc1ccc2nc(-c3cc(N=Cc4cc(C(=O)O)ccc4O)ccc3O)[nH]c2c1 | 34
16 | Oc1c(Cl)c(Cl)c(O)c2nsnc12 | 12

Row | SMILES | inhibition [%]
17 | O=C(O)c1ccc(O)c(C=Nc2ccc3oc(-c4cccc(Cl)c4Cl)nc3c2)c1 | 45
18 | CC(C)(C)NC(=O)CCN(/N=C/c1cc(C(=O)O)ccc1O)C1=NS(=O)(=O)c2ccccc21 | 30
19 | O=C(COc1ccc([N+](=O)[O-])cc1)Nc1ccc(O)cc1C(=O)O | 20
20 | COc1ccc(-c2nc3cc(N=Cc4cc(C(=O)O)ccc4O)ccc3o2)cc1 | 72
21 | O=C(O)c1ccc(O)c(/C=N/N(CCO)C2=NS(=O)(=O)c3ccccc32)c1 | 32
22 | OO.OO.[K+].[O]=[V].c1cnc2c(c1)ccc1cccnc12 | 96
23 | CC(C)CN1C(=O)c2ccc(C(=O)Nc3ccc(O)cc3C(=O)O)cc2C1=O | 41
24 | O=C(O)c1ccc(O)c(C=Nc2cccc(-c3nc4ccccc4o3)c2)c1 | 31
25 | O=C1NC(=S)S/C1=C\C=C\c1ccc([N+](=O)[O-])o1 | 78
26 | CN(N=O)c1ccc(O)c(O)c1 | 96
27 | CC1=C(C)OC(Nc2ccc(Br)cc2C(=O)O)C=C1 (configuration not stated) | 15
28 | CC1(C)OC(=O)C(=Cc2ccc(Br)o2)C(=O)O1 | 11
29 | OO.OO.[K+].[O]=[V].c1ccc(-c2ccccn2)nc1 | 93
30 | [NH-]CO.[NH-]CO.[NH-]CO.[NH-]CO.[O]=[V][O][V]=[O] | 89
31 | NC1=NC(=O)/C(=C/C=C/c2ccc([N+](=O)[O-])o2)S1 | 24
32 | O=C([O-])c1ccccn1.OO.OO.[K+].[K+].[O]=[V] | 98
